Laboratory results reported in US20150297619A1, “METHODS AND COMPOSITIONS FOR PRESERVING THE MUCOSAL BARRIER” (priority 2014, published 2015).

How the values were obtained:
hemorrhagic shock [1] = assay: Hemorrhagic shock model with enteral pretreatment, unflushed intestine (Example 1); type: in vivo, rat; conditions: for lesions in the jejunum (gross morphology): enteral pretreatment, HS 90 min at 30 mmHg, 3 hours observation; for rate of MAP decrease during reperfusion: last 2 hours of reperfusion, mean±SD
Method: Hemorrhagic Shock Model—Hemorrhagic shock (HS) was used to study the ability of treatments, shown in the ex vivo portion of the study to preserve the barrier and protect the intestine in the absence of luminal content, to prevent intestinal injury after ischemia/reperfusion injury in vivo when luminal content is present. Following general anesthesia, the femoral artery and vein were cannulated. Systolic, diastolic, heart rate, and mean arterial pressure (MAP) were recorded throughout the procedure using LabChart (AD Instruments, Dunedin, New Zealand). Rats were randomly divided into the following groups: […] No-HS animals were cannulated and immediately sacrificed for tissue collection. In the HS groups, anesthetized rats were subjected to laparotomy and the intestine was exposed, and a “Pre-HS” image was captured. […] Extra caution was applied to avoid over-inflation of the intestine. After injection, the intestine was carefully returned to the peritoneal cavity and the wound was covered with moist gauze and plastic wrap to keep the animal warm. To prevent clotting in catheters and shed blood, animals were heparinized (1 U/ml i.v., assuming 6% blood volume per body weight) prior to inducing hemorrhagic shock. […] At the end of ischemia, the shed blood was returned to the animal (0.5 ml/min). […] Gross morphology images of the intestine were captured, “Post-HS” At the end of reperfusion, segments of intestine (jejunum; 10 cm from ligament of Treitz) were snap frozen for homogenization and embedded in O.C.T. (Tissue Tek). MPO Activity—Myeloperoxidase (MPO) activity in the intestine as a measure for neutrophil accumulation was selected as an index of reperfusion injury after hemorrhagic shock. Segments from the jejunum (about at the position of segment 2 in the ex vitro study) were homogenized with their native luminal contents (PBS pH 6.0 in 0.5% HTAB). 40 μl of 2 mg/ml intestine homogenate was added to 180 μl of PBS (pH 6.0) mixed with 0.167 mg/ml o-dianisidine dihydrochloride (Sigma-Aldrich) in duplicate and 0.001% H2O2 (w/v). Absorbance was measured kinetically at 450 nm every 5 minutes for 1 hour at 37° C. As negative controls, 180 μl of PBS (pH 6.0) was added to 20 μl of sample and the absorbance values of these samples were subtracted from the measurements with the substrate. The change in absorbance was linear within this period, and MPO activity is presented as the change in absorbance per minute per milligram of protein.

hemorrhagic shock [2] = assay: Hemorrhagic shock with enteral/IV/IP treatments: intestine, plasma and lung injury (Example 2); type: in vivo, rat
Method: Adult male Sprague Dawley rats (mean±standard deviation (SD) body weight 340±60 g, N=64, Harlan, Indianapolis, Ind.) were allowed food and water ad libitum prior to surgery. Rats were administered general anesthesia (xylazine, 4 mg/kg; ketamine 75 mg/kg IM) and remained anesthetized throughout the experiment. At the termination of experiments, rats were euthanized by infusion of B-Euthanasia IV (120 mg/kg). The femoral artery and vein were cannulated. Systolic, diastolic, heart rate, and mean arterial pressure (MAP) were recorded throughout the procedure using LabChart (AD Instruments, Dunedin, New Zealand).
Hemorrhagic Shock (HS) with Removal of Luminal Contents—Animals were grouped into no-HS (No-HS), HS with intestinal luminal contents flushed (HS-F), and HS without intestinal flush (HS-NF). No-HS animals were immediately sacrificed for tissue collection following cannulation. All other animals were subject to laparotomy before the intestine was exposed and gross morphology was photographically recorded. Enteral treatments were administered to the intestine before returning to the peritoneal cavity (Table 1). IV/IP injections were delivered following the intestinal injections.
Following the intestinal preparations, the animals were heparinized to minimize clotting in catheters and in shed blood samples (1 U/mL of calculated blood volume i.v.; assuming 6 mL blood volume per 100 g total body weight) before onset of hemorrhage. MAP was reduced to 30 mmHg by withdrawal of blood through the venous catheter (0.4 mL/min) with a 5 mL syringe. The initial 1 mL of blood drawn was collected, centrifuged (1000 g, 5 min), and the plasma was immediately frozen at […] for further analysis. The arterial pressure was monitored and adjusted by withdrawal/return of blood over the 90-min ischemic period. At the end of ischemia, the shed blood was returned to the animals (0.5 mL/min) plus 1 mL of saline (to replace the 1 mL of blood collected before shock).
Gross morphology images of the intestine were captured at the end of the reperfusion period. Post-HS blood was collected through the arterial catheter, spun (1000 g, 5 min), and the plasma was immediately frozen at […]. The animals were then euthanized and lung and jejunum specimen were snap frozen for homogenization or embedded in optimum cutting temperature (O.C.T.) (Saukura, Leiden, the Netherlands) for histological sectioning. Jejunum was chosen for analysis, as more intestinal hemorrhage is typically seen there than in the ileum in models of HS.
After hemorrhagic shock, bronchoalveolar lavage fluid (BALF) was collected by inserting an 18 gauge blunt needle into the left main bronchus of the left lung. The lunch was photographed to assess gross morphological damage. The images were blindly assessed for macroscopic lung damage. Scoring was as follows: 0, no visible lung damage and pink in color; 1, mostly pink in color with some dark red lesions starting to form around the central part of the lung near the trachea; 2, some pink color with more lesions forming and spreading throughout the lung; 3, dark red lesions through the majority of the lung surface; 4, complete lung damage in all parts of the organ surface.
To collect BALF fluid, saline (˜2.0 ml/lavage) was injected and recovered three times before centrifugation (1000 g, 5 min). Following the third wash, the lung was injected with O.C.T., embedded, and frozen. The total volume of recovered BALF fluid was measured and the fraction of saline recovered versus the amount injected was used to normalize all measurements.
Intestinal Hemorrhage—Segments of jejunum were mechanically homogenized by weight (10 ml per 1 g; 18,000 g, 20 min; stored at −80° C.) in 0.5% hexadecyltrimethyl-ammonium bromide (HTAB) in PBS (pH 6.0). Any luminal content present in the segment was included in the weighing and homogenization. […]

Row | Structure (SMILES) | lesions in the jejunum (gross morphology) (hemorrhagic shock [1]) | rate of MAP decrease during reperfusion (hemorrhagic shock [1]) | MPO activity of intestinal homogenates (hemorrhagic shock [2]; after HS) | gross morphology of the intestine (microhemorrhages) (hemorrhagic shock [2]; after HS) | lung VE-cadherin levels (hemorrhagic shock [2]; after HS, immunoblot) | lung VEGFR-2 levels (hemorrhagic shock [2]; after HS, immunoblot) | macroscopic lung injury (lung injury score) (hemorrhagic shock [2]; after HS) | plasma MMP-9 and neutrophil derived pro-MMP-9 activity (hemorrhagic shock [2]; post-HS plasma, gel zymography)
1 | NC[C@H]1CC[C@H](C(=O)O)CC1 [tranexamic acid] | had lesions form in the jejunum | −0.27±0.16 mmHg/min | tended to be lower | fewer regions with microhemorrhages | significantly reduced | maintained | – | –
2 | O=C[C@H](O)[C@@H](O)[C@H](O)[C@H](O)CO [Glucose, glucose] | had lesions form in the jejunum | −0.21±0.13 mmHg/min | tended to be lower | microhemorrhages most severely | – | – | trend in reduction | significantly more activity compared to HS+SAL
